Measured values as given in publication PMC7979765, “trans-Translation inhibitors bind to a novel site on the ribosome and clear Neisseria gonorrhoeae in vivo” (Nature Communications, 2021).
≈ marks a conversion by molar mass, not a printed value. Where “and” joins values, the source holds several entries; their conditions need not be identical. Identical values can stand only once.

What was measured:
[1] = Liver microsome stability, murine; format: in vitro ADME, mouse; details: murine liver microsomes
Procedure: To examine potential for first-pass metabolism of analogs in the liver, the stability of analogs in the presence of liver microsome preparations (Eurofins Discovery for human, dog and rat; Xenotech for mouse) was measured using the method of Kuhnz, et al.[50]. for murine studies and Oback for the dog, human and rat studies. The amount of parent compound remaining after incubation with microsomes in the presence of NADPH over a 30 min time range was measured using a reverse-phase liquid chromatography/mass spectroscopy method that was customized for each compound. Half-lives were calculated using linear regression analysis of several time points.

[2] = Aqueous solubility (nephelometric); format: physicochemical
[3] = tested on: HeLa cells; assay: Mammalian cell cytotoxicity (CC50); format: cell-based, human; details: HeLa, replicates
Procedure: The half maximal cytotoxic concentration (CC50) of each compound against HeLa cells (ATCC CCL-2) was measured as previously described. […] The mean values for each biological replicate were averaged, and the CC50 was determined using a 4-parameter nonlinear curve fitting algorithm (GraphPad Prism). The average of the CC50s from two biological replicates was calculated and reported.

[4] = tested on: HeLa cells; assay: Mammalian cell cytotoxicity (CC50); format: cell-based, human; details: one value per replicate
[5] = tested on: N. gonorrhoeae strain H041; assay: In vivo efficacy in the gonorrhea mouse model; details: for mouse cfu: individual mice, 2.00E+01 = no CFU/mL recovered, limit of detection

In the case of `O=C(Nc1nnc(-c2ccc(F)cc2)o1)c1ccccc1` [MBX-C4227], the “Average MLMS t½” value ([1]; average of replicates) is reported as under 5 min, the “MLMS t½” value ([1]; individual replicates) is reported as under 5 min and the “Average solubility” value [2] is reported as 50 µM. The Solubility ([2]; single replicates) was 50 µM (≈ 14.2 µg/mL).

With `O=C(Nc1nnc(-c2ccc(F)cc2)o1)c1ccccc1` [MBXC-4227] the “NORMALIZED DATA (Fraction DMSO Control)” value ([3]; [CMPD] 0.78125 µM) was 0.9526 Fraction DMSO Control and 0.9482 Fraction DMSO Control and 0.9778 Fraction DMSO Control and 0.9357 Fraction DMSO Control and 0.9509 Fraction DMSO Control and 0.9608 Fraction DMSO Control, the “NORMALIZED DATA (Fraction DMSO Control)” value ([3]; [CMPD] 1.5625 µM) was 0.9867 Fraction DMSO Control and 1.034 Fraction DMSO Control and 1.028 Fraction DMSO Control and 0.9667 Fraction DMSO Control and 0.9674 Fraction DMSO Control and 0.99 Fraction DMSO Control and the “NORMALIZED DATA (Fraction DMSO Control)” value ([3]; [CMPD] 3.125 µM) was 1.005 Fraction DMSO Control and 1.004 Fraction DMSO Control and 0.9736 Fraction DMSO Control and 0.9997 Fraction DMSO Control and 1.016 Fraction DMSO Control and 1.006 Fraction DMSO Control. For the same molecule, the “NORMALIZED DATA (Fraction DMSO Control)” value ([3]; [CMPD] 6.25 µM) was 0.9644 Fraction DMSO Control and 0.9925 Fraction DMSO Control and 0.9938 Fraction DMSO Control and 0.9804 Fraction DMSO Control and 0.9921 Fraction DMSO Control and 0.9636 Fraction DMSO Control, the “NORMALIZED DATA (Fraction DMSO Control)” value ([3]; [CMPD] 12.5 µM) was 0.8938 Fraction DMSO Control and 0.856 Fraction DMSO Control and 0.8425 Fraction DMSO Control and 0.8596 Fraction DMSO Control and 0.8611 Fraction DMSO Control and 0.8593 Fraction DMSO Control and the “NORMALIZED DATA (Fraction DMSO Control)” value ([3]; [CMPD] 25 µM) was 0.9039 Fraction DMSO Control and 0.9304 Fraction DMSO Control and 0.9129 Fraction DMSO Control and 0.9236 Fraction DMSO Control and 0.9122 Fraction DMSO Control and 0.9801 Fraction DMSO Control. For the same molecule, the “NORMALIZED DATA (Fraction DMSO Control)” value ([3]; [CMPD] 50 µM) was 0.7944 Fraction DMSO Control and 0.8334 Fraction DMSO Control and 0.7734 Fraction DMSO Control and 0.7887 Fraction DMSO Control and 0.7582 Fraction DMSO Control and 0.8061 Fraction DMSO Control, the “NORMALIZED DATA (Fraction DMSO Control)” value ([3]; [CMPD] 100 µM) was 0.6978 Fraction DMSO Control and 0.688 Fraction DMSO Control and 0.6756 Fraction DMSO Control and 0.7089 Fraction DMSO Control and 0.7199 Fraction DMSO Control and 0.7396 Fraction DMSO Control and the CC50 [4] was at least 100 µM.

For `CNC(C)C1CCC(N)C(OC2C(N)CC(N)C(OC3OCC(C)(O)C(NC)C3O)C2O)O1` (stereo not drawn) [gentamicin, reference compound], the mouse cfu ([5]; Day 5, GEN, listed as GEN) was 2.00E+01 CFU/mL (19×) and 3.11E+03 CFU/mL, the mouse cfu ([5]; Day 6, GEN, listed as GEN) was 2.00E+01 CFU/mL (19×) and 6.14E+04 CFU/mL and the mouse cfu ([5]; Day 7, GEN, listed as GEN) was 2.00E+01 CFU/mL (19×) and 3.22E+05 CFU/mL. For the same molecule, the mouse cfu ([5]; Day 8, GEN, listed as GEN) was 2.00E+01 CFU/mL (19×) and 5.02E+06 CFU/mL, the mouse cfu ([5]; Day -1, GEN, listed as GEN) was 1.75E+06 CFU/mL and 2.50E+03 CFU/mL and 5.59E+05 CFU/mL and 1.30E+04 CFU/mL and 2.52E+05 CFU/mL and 1.60E+05 CFU/mL and 6.90E+06 CFU/mL and 1.04E+06 CFU/mL and 2.76E+04 CFU/mL and 2.76E+06 CFU/mL and 1.05E+03 CFU/mL and 2.80E+06 CFU/mL and 2.25E+06 CFU/mL and 3.27E+05 CFU/mL and 1.99E+05 CFU/mL and 1.82E+05 CFU/mL and 1.55E+06 CFU/mL and 1.50E+06 CFU/mL and 9.59E+05 CFU/mL and 4.61E+03 CFU/mL and the “mice cleared per day: cleared flag” value ([5]; GEN, individual mice 21-40, 1 = cleared on the day, 0 = not cleared, listed as GEN) was 1 and 0. The “Day (mice cleared per day: day on which the mouse was cleared)” value ([5]; GEN, individual mice 21-40, Day 8 with flag 0 = not cleared, listed as GEN) was 1 and 4 and 8 and 3 and 5 and 2 and the “treated mice with infection cleared” value ([5]; daily intraperitoneal injection 48 mg/kg for 5 days, N. gonorrhoeae H041) was 95%.
